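96-well plates; 48 h exposure; 5 concentrations. Endpoints by linear interpolation between flanking doses. Not reached: highest tested concentration assigned. Abbreviation: GI50, concentration required for 50% inhibition of growth.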 Calls of active or inactive are those of the source. Cut-off read from the data, not from the text of the source: active = GI50 up to about 1.1 µM and inactive = higher.
What was measured:
Assay in all cases: NCI tumour cell line growth inhibition, 48 h
786-0 = system: 786-0
A498 = system: A498
ACHN = system: ACHN
BT-549 = system: BT-549
COLO 205 = system: COLO 205
HCT-116 = system: HCT-116
HOP-92 = system: HOP-92
MCF7 = system: MCF7
MDA-N = system: MDA-N
NCI/ADR-RES = system: NCI/ADR-RES
OVCAR-3 = system: OVCAR-3
OVCAR-4 = system: OVCAR-4
OVCAR-8 = system: OVCAR-8
PC-3 = system: PC-3
SF-539 = system: SF-539
SK-OV-3 = system: SK-OV-3
SW-620 = system: SW-620
TK-10 = system: TK-10
U-251 = system: U-251

Structure (SMILES)	GI50 (786-0)	GI50 (A498)	GI50 (ACHN)	GI50 (BT-549)	GI50 (COLO 205)	GI50 (HCT-116)	GI50 (HOP-92)	GI50 (MCF7)	GI50 (MDA-N)	GI50 (NCI/ADR-RES)	GI50 (OVCAR-3)	GI50 (OVCAR-4)	GI50 (OVCAR-8)	GI50 (PC-3)	GI50 (SF-539)	GI50 (SK-OV-3)	GI50 (SW-620)	GI50 (TK-10)	GI50 (U-251)
Oc1ccccc1CNCc1ccccc1O	> 100 µM (inactive)	> 100 µM (inactive)	> 100 µM (inactive)	> 100 µM (inactive)	34 µM (inactive)	> 100 µM (inactive)	99.5 µM (inactive)	> 100 µM (inactive)	39.8 µM (inactive)	> 100 µM (inactive)	> 100 µM (inactive)	> 100 µM (inactive)	> 100 µM (inactive)	> 100 µM (inactive)	56.1 µM (inactive)	> 100 µM (inactive)	> 100 µM (inactive)	> 100 µM (inactive)	> 100 µM (inactive)
O=C(O)C(=Cc1ccnc2ccccc12)C(=O)O	> 100 µM (inactive)	> 100 µM (inactive)	> 100 µM (inactive)	> 100 µM (inactive)	> 100 µM (inactive)	> 100 µM (inactive)	> 100 µM (inactive)	> 100 µM (inactive)	> 100 µM (inactive)	> 100 µM (inactive)	> 100 µM (inactive)		> 100 µM (inactive)	> 100 µM (inactive)	> 100 µM (inactive)	> 100 µM (inactive)	> 100 µM (inactive)	> 100 µM (inactive)	> 100 µM (inactive)
COC(=O)C12CCC(C(=O)OC)(Cc3c(c4ccccc4n3S(=O)(=O)c3ccccc3)C1)C2=O (stereo not given)	> 42.1 µM (inactive)	> 100 µM (inactive)	> 64.1 µM (inactive)	> 100 µM (inactive)	> 100 µM (inactive)		1 µM (active)	63.8 µM (inactive)	> 100 µM (inactive)	16.7 µM (inactive)	> 61.8 µM (inactive)	> 61.7 µM (inactive)	> 92.7 µM (inactive)	> 63.5 µM (inactive)	> 40.6 µM (inactive)	> 70.8 µM (inactive)	> 100 µM (inactive)	> 56.2 µM (inactive)	> 100 µM (inactive)
O=C1c2c(Br)sc(Br)c2[C@@H](Cl)[C@H]1Cl	24.5 µM (inactive)	> 100 µM (inactive)	19.2 µM (inactive)	20.6 µM (inactive)	15.7 µM (inactive)	22.8 µM (inactive)	21 µM (inactive)	21.5 µM (inactive)	11 µM (inactive)	33.1 µM (inactive)	14.3 µM (inactive)	18.2 µM (inactive)	15.1 µM (inactive)	18.7 µM (inactive)	12.5 µM (inactive)	19.4 µM (inactive)	5.08 µM (inactive)	29 µM (inactive)	14.5 µM (inactive)
Cc1ccc(S(=O)(=O)ON2C(=O)c3c(N)c(C#N)c(-c4ccccc4)c(-c4ccccc4)c3C2=O)cc1	15.8 µM (inactive)	20 µM (inactive)	16.4 µM (inactive)	13.1 µM (inactive)	17.3 µM (inactive)	14.6 µM (inactive)	21.6 µM (inactive)	16 µM (inactive)	16.4 µM (inactive)	23.4 µM (inactive)	13.6 µM (inactive)	21.9 µM (inactive)	17.6 µM (inactive)	15.7 µM (inactive)	21.6 µM (inactive)	16.2 µM (inactive)	14.6 µM (inactive)	17.3 µM (inactive)	16.2 µM (inactive)
Oc1cc(Cl)cc2cc(Cl)cnc12	23 µM (inactive)	12.5 µM (inactive)	2.44 µM (inactive)	4.73 µM (inactive)	31 µM (inactive)	2.67 µM (inactive)	21.5 µM (inactive)	3.4 µM (inactive)	6.34 µM (inactive)	1.49 µM (inactive)	0.582 µM (active)	1.55 µM (inactive)	2.28 µM (inactive)	2.94 µM (inactive)	3.24 µM (inactive)	30.8 µM (inactive)	3.15 µM (inactive)	27.5 µM (inactive)	2.42 µM (inactive)
O=C(NCCCCCCCCNC(=O)Nc1cccc2ccccc12)Nc1cccc2ccccc12	10.1 µM (inactive)	11 µM (inactive)	85.9 µM (inactive)	31.6 µM (inactive)	35.6 µM (inactive)	9.55 µM (inactive)	6.92 µM (inactive)	13.8 µM (inactive)	20.3 µM (inactive)	46.7 µM (inactive)	36.5 µM (inactive)	1.45 µM (inactive)	18.5 µM (inactive)	72.1 µM (inactive)	10.8 µM (inactive)		9.66 µM (inactive)	43.7 µM (inactive)	2.76 µM (inactive)
COc1ccc(/C=C/c2sc3ccccc3[n+]2CCCCI)cc1OC	> 10 µM (inactive)	> 10 µM (inactive)	> 10 µM (inactive)	> 10 µM (inactive)		4.36 µM (inactive)	9.53 µM (inactive)	> 10 µM (inactive)	5.97 µM (inactive)	> 10 µM (inactive)	5.47 µM (inactive)	> 10 µM (inactive)	4.61 µM (inactive)	3.33 µM (inactive)	> 10 µM (inactive)	> 10 µM (inactive)	7.01 µM (inactive)	> 10 µM (inactive)	6.67 µM (inactive)
CCOC(=O)CCC(NC(=O)c1ccc(Nc2nc3ccccc3n3cccc23)cc1)C(=O)OCC (stereo not given)	17 µM (inactive)	70.1 µM (inactive)	20.6 µM (inactive)	23.3 µM (inactive)	53.8 µM (inactive)	31.2 µM (inactive)	32.1 µM (inactive)	16.6 µM (inactive)	28.4 µM (inactive)	19.5 µM (inactive)	18.2 µM (inactive)		19.6 µM (inactive)	16.4 µM (inactive)	18.8 µM (inactive)	24.1 µM (inactive)	81.7 µM (inactive)	22.5 µM (inactive)	23 µM (inactive)
COc1cc(/C=C2\C[C@H]3[C@@H]4CCC5=CC(=O)CC[C@]5(C)[C@H]4CC[C@]3(C)C2=O)cc(OC)c1OC	23.1 µM (inactive)	17.7 µM (inactive)	9.16 µM (inactive)	3.29 µM (inactive)	4.32 µM (inactive)	3.85 µM (inactive)	13.1 µM (inactive)	3.56 µM (inactive)	4.43 µM (inactive)	3.86 µM (inactive)	4.49 µM (inactive)	6.12 µM (inactive)	4 µM (inactive)	3.23 µM (inactive)	46.7 µM (inactive)	29.4 µM (inactive)	8.61 µM (inactive)	19.8 µM (inactive)	11.7 µM (inactive)
COc1cc(C2SCC(=O)N2c2ccc(Cl)cc2)cc(OC)c1OC (stereo not given)	> 58.5 µM (inactive)	> 100 µM (inactive)		20.2 µM (inactive)	1.94 µM (inactive)	8.11 µM (inactive)	> 49.1 µM (inactive)	5.22 µM (inactive)	3.05 µM (inactive)	20.4 µM (inactive)	22.2 µM (inactive)	5.81 µM (inactive)	> 45.4 µM (inactive)	46.2 µM (inactive)	> 100 µM (inactive)	> 94.6 µM (inactive)	19 µM (inactive)	> 100 µM (inactive)	> 79.4 µM (inactive)
CN(C)c1ccc(/C=C2\N=C(c3ccccc3)N(/N=C3\C(=O)Nc4ccccc43)C2=O)cc1	52.4 µM (inactive)	73.6 µM (inactive)	65.9 µM (inactive)	> 100 µM (inactive)	30.2 µM (inactive)	57.3 µM (inactive)	16.9 µM (inactive)	35.8 µM (inactive)	32.7 µM (inactive)	83.8 µM (inactive)	16.8 µM (inactive)	32.4 µM (inactive)	55 µM (inactive)	56.5 µM (inactive)	> 100 µM (inactive)	> 100 µM (inactive)	65 µM (inactive)	53.2 µM (inactive)	76.6 µM (inactive)
O=C(Cn1nc(Br)c(Br)c1Br)c1ccccc1	23.7 µM (inactive)	35 µM (inactive)	27.3 µM (inactive)	20.2 µM (inactive)	18.9 µM (inactive)	18.1 µM (inactive)	20 µM (inactive)	36.2 µM (inactive)	32.9 µM (inactive)	30.1 µM (inactive)	34.1 µM (inactive)	36.1 µM (inactive)	34.5 µM (inactive)	32.7 µM (inactive)	18.2 µM (inactive)	32.5 µM (inactive)	34 µM (inactive)	13.7 µM (inactive)	34 µM (inactive)
CCOC(=O)CCCc1cc(O)c2c(C)c3[nH]c4ccc(Cl)cc4c3c(C)c2n1	20.4 µM (inactive)	15.3 µM (inactive)	24.3 µM (inactive)	19 µM (inactive)	41.8 µM (inactive)	34.8 µM (inactive)	22 µM (inactive)	15.9 µM (inactive)	34.9 µM (inactive)	23.4 µM (inactive)	17.7 µM (inactive)	23.7 µM (inactive)	24.9 µM (inactive)	28.8 µM (inactive)	14.6 µM (inactive)		32.2 µM (inactive)	21.1 µM (inactive)	22.9 µM (inactive)
CC1(C)[C@H]2Cc3cc(-c4cc5c(cn4)[C@@H]4C[C@H]([C@@H]5[C@@H]5c6cc(-c7cc8c(cn7)[C@@H]7C[C@H](C8)C7(C)C)ncc6[C@@H]6C[C@H]5C6(C)C)C4(C)C)ncc3[C@@H]1C2	> 100 µM (inactive)	> 100 µM (inactive)	> 100 µM (inactive)	> 100 µM (inactive)	> 100 µM (inactive)	> 100 µM (inactive)	> 100 µM (inactive)	> 100 µM (inactive)	> 100 µM (inactive)	> 100 µM (inactive)	> 100 µM (inactive)		> 100 µM (inactive)	> 100 µM (inactive)		> 100 µM (inactive)	> 100 µM (inactive)		> 100 µM (inactive)

From ChEMBL document CHEMBL1201862, “PubChem BioAssay data set” (2004)
